Results as given in patent US20090105119A1, “ASPARAGINE-10-SUBSTITUTED NONADEPSIPEPTIDES” (priority 2006, published 2009).
*1 amine or outer side, *2 acyl side, *3 side chain or, on linkers, in order; H or OH if unused. Where a SMILES comes first, the peptide text is derived from it. Bridges are numbered along the chain shown (N, C = ends). Side-chain parts run from the residue outwards. [ ]: non-standard residue; d: D form. The star is where a group is joined. X4 = O=C(CNC(=O)[C@@H](O)[C@H](N[*:1])C(=O)[*:2])OCc1ccccc1; Phe(3R-OH) = O=C([C@@H](N[*:1])[C@H](O[*:3])c1ccccc1)[*:2]; X8 = O=C(NCCCN1CCOCC1)[C@@H](O)[C@H](N[*:1])C(=O)[*:2]; X6 = NC(=O)CNC(=O)[C@@H](O)[C@H](N[*:1])C(=O)[*:2]; X3 = O=C([C@@H](N[*:1])[C@H](O)C(=O)[*:3])[*:2]; X5 = NCCNC(=O)[C@@H](O)[C@H](N[*:1])C(=O)[*:2]; Asn(3S-OH) = NC(=O)[C@@H](O)[C@H](N)C(=O)O; Leu(3R-OH) = CC(C)[C@@H](O)[C@H](N)C(=O)O; Ethylenediamine = C(CN[*:2])N[*:1]; aThr = C[C@H](O)[C@H](N)C(=O)O; Cbz = O=C(OCc1ccccc1)*

Legend:
[1] = Determination of the free fraction (fu) in plasma; type: in vitro ADME, rat; settings: rat, plasma, pH 7.4
Description: (§1) Principle of the Determination of the Free Fraction Via Transil:
(§2) The method described here for determining the free fraction (fu) of a test substance is divided into 2 parts:
(§3) a) Determination of the Transil®/buffer distribution ratio (MAbuffer) by incubating the test substance in a Transil®-buffer (pH 7.4) dispersion and subsequently determining the concentration in the dispersion and in the buffer supernatant.
(§4) b) Determination of the Transil®/plasma distribution ratio (MAplasma) by incubating the test substance in a Transil®-plasma dispersion and subsequently determining the concentration in the dispersion and in the plasma.
(§5) The quotient of the two distribution ratios yields fu.
(§6) In the case of highly protein-bound substances, the plasma is usually diluted with isotonic phosphate buffer (pH 7.4) and then suspended with Transil®. The determination of fu′ (free fraction in diluted plasma) in this diluted protein solution takes place in analogy to the determination of fu. The free fraction in undiluted plasma is calculated from fu′ and the dilution factor.
(§7) Concerning this method, compare also: Schuhmacher, Joachim; Kohlsdorfer, Christian; Buehner, Klaus; Brandenburger, Tim; Kruk, Renate, “High-throughput determination of the free fraction of drugs strongly bound to plasma proteins.” Journal of Pharmaceutical Sciences 2004, 93, 816-830.
(§8) Determination of the Membrane Affinity of a Test Substance after Distribution Between Transil® and Buffer (MAbuffer):
(§9) All incubations are carried out in suitable glass vessels, e.g. glass vials, ground-socket test tubes. In general the total volume is 0.5-5 ml, and the Transil® volume 10-100 μl. In cases where the membrane affinities are expected to be high, the Transil® dispersion can be diluted up to 20-fold with phosphate buffer of pH 7.4, e.g. Dulbecco's PBS. Phosphate buffer of pH 7.4 is provided in the incubation vessels, and the Transil® is pipetted in, after thorough mixing. The test substance is pipetted in at a concentration of, for example, 200 ng/mL, n=6. The proportion of organic solvent should be <2%. The mixtures are incubated at room temperature for 30 min, e.g. on a mini-shaker at an angle of about 45°, at about 400 rpm. In order to determine the 100% value at least one aliquot of, for example, 100 μl, is removed and the remaining mixture is centrifuged at about 1800 g for about 10 min. At least 2 aliquots (e.g. 100 μl) of the supernatant are removed from each sample for the determination of the concentration.
(§10) Determination of MAplasma in Undiluted or Diluted Plasma:
(§11) The total incubation volume and the added volume of Transil® depend on the expected free fraction. In general the total volume is 0.5-1 ml, and the Transil® volume is 10-100 μl. In cases where the free fractions are very low, the plasma of the species to be investigated is diluted, with isotonic buffer solution, pH 7.4, e.g. 10-400-fold, and the Transil® is then added. The subsequent procedure takes place as described above for the determination of the MAbuffer values. […]
(§12) The plasma of the species to be investigated is filtered through a semipermeable membrane. The substance concentration in the filtrate is measured and the free fraction fu is calculated therefrom. […] The substance concentration in the ultrafiltrate (Cu; unbound substance concentration) and in the plasma before centrifugation (C; total substance concentration) is measured. The free fraction is calculated by the formula: fu (%)=Cu/C*100.

[2] = Determination of the free fraction (fu) in plasma; type: in vitro ADME; settings: human
Description: as §1, §2, §3, §4, §5, §6, §7, §8, §9, §10, §11, §12

E. faecalis ICB 27159 = type: cell-based, Enterococcus faecalis; settings: ICB 27159
Description: (§13) Determination of the Minimum Inhibitory Concentration (MIC):
(§14) The MIC is determined in the liquid dilution test in accordance with the NCCLS guidelines. Overnight cultures of Staphylococcus aureus 133, Enterococcus faecalis 27159, E. faecium 4147 and Streptococcus pneumoniae G9a are incubated with the described test substances in a 1:2 dilution series. The MIC determination is carried out with a cell count of 10^5 microbes per ml in Isosensitest medium (Difco, Irvine/USA), with the exception of S. pneumoniae which is tested in BHI broth (Difco, Irvine/USA) with 10% bovine serum with a cell count of 10^6 microbes per ml. The cultures are incubated at 37° C. for 18-24 hours, S. pneumoniae in the presence of 10% CO2.
(§15) The MIC is defined as the lowest concentration of each substance at which no visible bacterial growth occurs any longer. The MIC values are reported in μg/ml.

[3] = tested on: Streptococcus pneumoniae G9a; type: cell-based; settings: G9a
Description: as §13, §14, §15

[4] = tested on: Staphylococcus aureus 133; type: cell-based; settings: 133
Description: as §13, §14, §15

Row | SMILES | fraction unbound at 30 min, 200 ng/mL [1] | fraction unbound at 30 min [2] | MIC E. faecalis ICB 27159 (E. faecalis ICB 27159) [µg/mL] | MIC S. pneumoniae G9a [3] [µg/mL] | MIC S. aureus 133 [4] [µg/mL]
1 | CC[C@H](C)[C@@H]1NC(=O)[C@@H](CCCNC(=N)N)NC(=O)[C@H](CC(C)C)NC(=O)[C@H]([C@H](O)C(C)C)NC(=O)[C@@H](NC(=O)[C@H](CC(C)C)NC(=O)[C@H](N)CC(C)C)[C@@H](c2ccccc2)OC(=O)[C@H](CO)NC(=O)[C@H]([C@H](O)C(N)=O)NC(=O)CNC(=O)[C@H]([C@H](C)O)NC1=O [1a (Lysobactin), D-Leucyl-N^1-{(3S,6S,12S,15S,18R,21S,24S,27S,28R)-6-[(1S)-2-amino-1-hydroxy-2-oxo-ethyl]-18-(3-{[amino(imino)methyl]amino}propyl)-12-[(1S)-1-hydroxyethyl]-3-(hydroxy-methyl)-24-[(1R)-1-hydroxy-2-methylpropyl]-21-isobutyl-15-[(1S)-1-methylpropyl]-2,5,8,11,14,17,20,23,26-nonaoxo-28-phenyl-1-oxa-4,7,10,13,16,19,22,25-octaazacyclo-octacosan-27-yl}-L-leucinamide Bistrifluoroacetate, reference compound] (H-[dL]L[Phe(3R-OH)][Leu(3R-OH)]L[dR]I[aThr]G[Asn(3S-OH)]S; ester 3-C) | 0.0076 | 0.0081 |  |  | 
2 | CC[C@H](C)[C@@H]1NC(=O)[C@@H](CCCNC(=N)N)NC(=O)[C@H](CC(C)C)NC(=O)[C@H]([C@H](O)C(C)C)NC(=O)[C@@H](NC(=O)[C@H](CC(C)C)NC(=O)[C@H](N)CC(C)C)[C@@H](c2ccccc2)OC(=O)[C@H](CO)NC(=O)[C@H]([C@H](O)C(=O)NCC(=O)OCc2ccccc2)NC(=O)CNC(=O)[C@H]([C@H](C)O)NC1=O.O=C(O)C(F)(F)F.O=C(O)C(F)(F)F [Example 8, N^4.10-(2-(Benzyloxy)-2-oxoethyl)-D-leucyl-L-leucyl-[(3R)-3-hydroxy-L-phenylalanyl]-[(3R)-3-hydroxy-L-leucyl]-L-leucyl-D-arginyl-L-isoleucyl-L-allothreonylglycyl-[(3S)-3-hydroxy-L-β-asparaginyl]-L-serine C^1.11—O^3.3-lactone Bistrifluoroacetate] (H-[dL]L[Phe(3R-OH)][Leu(3R-OH)]L[dR]I[aThr]G[X4]S; ester 3-C) |  |  | 16 | 2 | 0.5
3 | CC[C@H](C)[C@@H]1NC(=O)[C@@H](CCCNC(=N)N)NC(=O)[C@H](CC(C)C)NC(=O)[C@H]([C@H](O)C(C)C)NC(=O)[C@@H](NC(=O)[C@H](CC(C)C)NC(=O)[C@H](N)CC(C)C)[C@@H](c2ccccc2)OC(=O)[C@H](CO)NC(=O)[C@H]([C@H](O)C(=O)NCCNC(=O)OCc2ccccc2)NC(=O)CNC(=O)[C@H]([C@H](C)O)NC1=O.O=C(O)C(F)(F)F.O=C(O)C(F)(F)F [Example 9, N^4.10-(2-{[(Benzyloxy)carbonyl]amino}ethyl)-D-leucyl-L-leucyl-[(3R)-3-hydroxy-L-phenylalanyl]-[(3R)-3-hydroxy-L-leucyl]-L-leucyl-D-arginyl-L-isoleucyl-L-allothreon-ylglycyl-[(3S)-3-hydroxy-L-asparaginyl]-L-serine C^1.11—O^3.3-lactone Bistrifluoroacetate] (H-[dL]L[Phe(3R-OH)][Leu(3R-OH)]L[dR]I[aThr]G[X3]([Ethylenediamine-Cbz])S; ester 3-C) |  |  | 16 | 2 | 0.5

Second part, the molecule after the results:

Row | fraction unbound at 30 min, 200 ng/mL [1] | fraction unbound at 30 min [2] | MIC E. faecalis ICB 27159 (E. faecalis ICB 27159) [µg/mL] | MIC S. pneumoniae G9a [3] [µg/mL] | MIC S. aureus 133 [4] [µg/mL] | SMILES
4 | 0.068 | 0.024 |  |  |  | CC[C@H](C)[C@@H]1NC(=O)[C@@H](CCCNC(=N)N)NC(=O)[C@H](CC(C)C)NC(=O)[C@H]([C@H](O)C(C)C)NC(=O)[C@@H](NC(=O)[C@H](CC(C)C)NC(=O)[C@H](N)CC(C)C)[C@@H](c2ccccc2)OC(=O)[C@H](CO)NC(=O)[C@H]([C@H](O)C(=O)NCCCN2CCOCC2)NC(=O)CNC(=O)[C@H]([C@H](C)O)NC1=O [Example 4, N^4.10-(3-Morpholin-4-yl-propyl)-D-leucyl-L-leucyl-[(3R)-3-hydroxy-L-phenylalanyl]-[(3R)-3-hydroxy-L-leucyl]-L-leucyl-D-arginyl-L-isoleucyl-L-allothreonylglycyl-[(3S)-3-hydroxy-L-asparaginyl]-L-serine C^1.11—O^3.3-lactone Tristrifluoroacetate] (H-[dL]L[Phe(3R-OH)][Leu(3R-OH)]L[dR]I[aThr]G[X8]S; ester 3-C)
5 |  |  | 2 | 1 | 0.25 | CC[C@H](C)[C@@H]1NC(=O)[C@@H](CCCNC(=N)N)NC(=O)[C@H](CC(C)C)NC(=O)[C@H]([C@H](O)C(C)C)NC(=O)[C@@H](NC(=O)[C@H](CC(C)C)NC(=O)[C@H](N)CC(C)C)[C@@H](c2ccccc2)OC(=O)[C@H](CO)NC(=O)[C@H]([C@H](O)C(=O)NCC(N)=O)NC(=O)CNC(=O)[C@H]([C@H](C)O)NC1=O.O=C(O)C(F)(F)F.O=C(O)C(F)(F)F [Example 10, N^4.10-(2-Amino-2-oxoethyl)-D-leucyl-L-leucyl-[(3R)-3-hydroxy-L-phenylalanyl]-[(3R)-3-hydroxy-L-leucyl]-L-leucyl-D-arginyl-L-isoleucyl-L-allothreonylglycyl-[(3S)-3-hydroxy-L-asparaginyl]-L-serine C^1.11—O^3.3-lactone Bistrifluoroacetate] (H-[dL]L[Phe(3R-OH)][Leu(3R-OH)]L[dR]I[aThr]G[X6]S; ester 3-C)
6 |  |  | 8 | 2 | 0.5 | CC[C@H](C)[C@@H]1NC(=O)[C@@H](CCCNC(=N)N)NC(=O)[C@H](CC(C)C)NC(=O)[C@H]([C@H](O)C(C)C)NC(=O)[C@@H](NC(=O)[C@H](CC(C)C)NC(=O)[C@H](N)CC(C)C)[C@@H](c2ccccc2)OC(=O)[C@H](CO)NC(=O)[C@H]([C@H](O)C(=O)NCCN)NC(=O)CNC(=O)[C@H]([C@H](C)O)NC1=O.O=C(O)C(F)(F)F.O=C(O)C(F)(F)F.O=C(O)C(F)(F)F [Example 12, N^4.10-(2-Aminoethyl)-D-leucyl-L-leucyl-[(3R)-3-hydroxy-L-phenylalanyl]-[(3R)-3-hydroxy-L-leucyl]-L-leucyl-D-arginyl-L-isoleucyl-L-allothreonylglycyl-[(3S)-3-hydroxy-L-asparaginyl]-L-serine C^1.11—O^3.3-lactone Tristrifluoroacetate] (H-[dL]L[Phe(3R-OH)][Leu(3R-OH)]L[dR]I[aThr]G[X5]S; ester 3-C)
